Test results published in publication PMC5453931, “Cathelicidin-trypsin inhibitor loop conjugate represents a promising antibiotic candidate with protease stability” (Scientific Reports, 2017).
Values after ≈ are worked out from the molar mass of the structure shown. Where a SMILES comes first, the peptide text is derived from it. Bridges are numbered along the chain shown (N, C = ends).

Experiments:
trypsin = assay: Trypsin inhibition assay (NBLAN hydrolysis, Dixon method); type: biochemical; conditions: 50 mM Tris–HCl pH 7.8, trypsin 0.1 mg/mL, 5 min pre-incubation at 37 °C, substrate NBLAN 48, 96, 192 μg/mL, 405 nm
Method: The inhibition effect on the hydrolysis of synthetic chromogenic substrate by trypsin was assayed in 50 mM Tris–HCl, pH 7.8 buffer at room temperature. The trypsin of final concentration of 0.1 mg/mL and different amounts of the hybrid peptide (final concentrations ranging from 0 to 0.16 μg/mL) were pre-incubated for 5 min at 37 °C. N-α-Benzoyl-DL-arginine p-nitroanilide hydrochloride (NBLAN) was used as a substrate for trypsin. The reaction was initiated by the addition of NBLAN with a final concentration of 48, 96 and 192 μg/mL, respectively. The formation of yellow product, p-nitroaniline was monitored continuously at 405 nm[61]. The inhibition constant Ki of the hybrid peptides were determined according to the method of Dixon (1953)[62].

K. Pneumoniae 08040202 = assay: microbe, parasite or virus in culture; type: cell-based; conditions: Gram-negative; two-fold broth microdilution, MH broth, 37 °C, 18 h; mean of three independent experiments in duplicates
Method: (§1) A two-fold broth microdilution method described in our previous paper was used to determine the antimicrobial activities of parental and hybrid peptides. More than 30 strains including Gram-negative bacteria, Gram-positive bacteria and fungi were used in the current assay, in which the standard strains were stored in our lab and the clinical strains were collected from local hospitals. Briefly, bacteria were incubated in Mueller-Hinton broth (MH broth) at 37 °C to exponential phase and diluted to 10^6 CFU/mL. A serial dilution of peptide sample were prepared in 96-well microtiter plates (50 μL) and mixed with equal volume of microbial inoculums (50 μL). The plate was slowly shaken in the microbial incubator, and measured at A595 after incubation at 37 °C for 18 h. The minimal concentrations at which no microbial growth occurred were recorded as MIC (minimal inhibitory concentration) values. The traditional antibiotic ampicillin was used as positive control. The results are shown in an average of the MICs obtained from three independent experiments.

Vibrio harveyi = assay: microbe, parasite or virus in culture; type: cell-based; conditions: 18 h
Method: as §1

Aeromonas veronii = assay: microbe, parasite or virus in culture; type: cell-based; conditions: 18 h
Method: as §1

Proteus mirabilis 1376 = assay: microbe, parasite or virus in culture; type: cell-based; conditions: Gram-negative; two-fold broth microdilution, MH broth, 37 °C, 18 h; mean of three independent experiments in duplicates
Method: as §1

[1] = system: Candida albicans 08030102; assay: microbe, parasite or virus in culture; type: cell-based; conditions: 08030102, 18 h
Method: as §1

E. Coli 08032823 = assay: microbe, parasite or virus in culture; type: cell-based; conditions: 08032823, 18 h
Method: as §1

P. Aeruginosa 08021015 = assay: microbe, parasite or virus in culture; type: cell-based; conditions: Gram-negative; two-fold broth microdilution, MH broth, 37 °C, 18 h; mean of three independent experiments in duplicates
Method: as §1

Vibrio cholerae = assay: microbe, parasite or virus in culture; type: cell-based; conditions: 18 h
Method: as §1

[2] = system: Escherichia coli ATCC25922; assay: microbe, parasite or virus in culture; type: cell-based; conditions: ATCC25922, 18 h
Method: as §1

Vibrio brasiiensis = assay: microbe, parasite or virus in culture; type: cell-based; conditions: 18 h
Method: as §1

Aeromonas sobria = assay: microbe, parasite or virus in culture; type: cell-based; conditions: 18 h
Method: as §1

Candida glabrata 08A802 = assay: microbe, parasite or virus in culture; type: cell-based; conditions: 08A802, 18 h
Method: as §1

S. Aureus 08032706 = assay: microbe, parasite or virus in culture; type: cell-based; conditions: Gram-positive; two-fold broth microdilution, MH broth, 37 °C, 18 h; mean of three independent experiments in duplicates
Method: as §1

Edwardsiella tarda = assay: microbe, parasite or virus in culture; type: cell-based; conditions: Aquatic pathogenic bacteria; two-fold broth microdilution, 37 °C, 18 h; mean of three independent experiments in duplicates
Method: as §1

[3] = system: Bacillus subtilis 08042313; assay: microbe, parasite or virus in culture; type: cell-based; conditions: 08042313, 18 h
Method: as §1

S. Maltophilia 090223 = assay: microbe, parasite or virus in culture; type: cell-based; conditions: 090223, 18 h
Method: as §1

S. Aureus 08032615 = assay: microbe, parasite or virus in culture; type: cell-based; conditions: Gram-positive; two-fold broth microdilution, MH broth, 37 °C, 18 h; mean of three independent experiments in duplicates
Method: as §1

[4] = system: Enterococcus faecium 08052315; assay: microbe, parasite or virus in culture; type: cell-based; conditions: 08052315, 18 h
Method: as §1

S. Aureus 08032810 = assay: microbe, parasite or virus in culture; type: cell-based; conditions: Gram-positive; two-fold broth microdilution, MH broth, 37 °C, 18 h; mean of three independent experiments in duplicates
Method: as §1

[5] = system: Nocardia asteroides 08052412; assay: microbe, parasite or virus in culture; type: cell-based; conditions: 18 h
Method: as §1

K. Pneumoniae 08031012 = assay: microbe, parasite or virus in culture; type: cell-based; conditions: Gram-negative; two-fold broth microdilution, MH broth, 37 °C, 18 h; mean of three independent experiments in duplicates
Method: as §1

E. coli 08040726 [6] = assay: MIC, two-fold broth microdilution (second listing of the strain number); type: cell-based; conditions: Gram-negative, MH broth, 37 °C, 18 h, mean of three independent experiments in duplicates
Method: as §1

E. Coli 08032813 = assay: MIC, two-fold broth microdilution; type: cell-based; conditions: Gram-negative; two-fold broth microdilution, MH broth, 37 °C, 18 h; mean of three independent experiments in duplicates
Method: as §1

[7] = system: Staphylococcus epidermidis; assay: MIC, two-fold broth microdilution; type: cell-based; conditions: Gram-positive; two-fold broth microdilution, MH broth, 37 °C, 18 h; mean of three independent experiments in duplicates
Method: as §1

Vibrio Parahaemolyticus = assay: MIC, two-fold broth microdilution; type: cell-based; conditions: Aquatic pathogenic bacteria; two-fold broth microdilution, 37 °C, 18 h; mean of three independent experiments in duplicates
Method: as §1

[8] = system: established C. albicans biofilm; assay: Biofilm disruption assay, established biofilm (XTT, PI/SYBR Green I); type: cell-based
Method: TIH3F that has the best antifungal activity among the four peptides was chosen to examine the effect on the C. albicans biofilm formation and the established biofilm using previously described method with minor modifications. In the biofilm inhibition assay, after the incubation at 35 °C, C. Albicans was diluted to 1 × 10^6 CFU/mL in RPMI-1640 medium. Then 2 mL culture was added to each well of 6-well plates with coverslips at the bottom, and incubated at 35 °C in a humid chamber for 3 h. Non-adherent cells were then washed away by PBS, and series concentrations of TIH3F (0, 1, 2, 4 μg/mL) were added into the plate, with amphotericin B as control. The formation of the biofilm was determined by the XTT Cell Proliferation and Cytotoxicity Kit (KeyGEN BioTECH, Nanjing, China) after 36-h incubation. In the biofilm disruption assay, the biofilm was preformed as described above but with a longer incubation time up to 72 h. Then TIH3F and amphotericin B of series concentrations (0, 2.5, 5, 10, 25, 50 μg/mL) was added after non-adherent cells were washed out. The measurement of remaining biofilm was then determined. In order to further confirm the antifungal effect of TIH3F against C. albicans encased in biofilms, the established biofilm was treated with TIH3F (0, 5, 50 μg/mL), washed three times with PBS, and finally stained with 1 mL 1000-fold diluted PI/SYBR Green I at 30 °C in the dark for 20 min. After washing with PBS, the plate was immediately photographed with fluorescence microscope.

E. coli 08040726 [9] = assay: Bacterial killing kinetic assay, colony counting; type: cell-based
Method: The bacterial killing kinetics of the hybrid peptides against E. coli 08040726 was determined by counting the changes in the viable bacterial clones after peptide treatment. The experiment was carried out according to the method described previously with minor modifications. Fresh colonies of the bacteria were incubated in MH broth at 37 °C for 12 h and diluted to 10^6 CFU/in fresh MH broth. The hybrid peptide was added to the bacterial suspension with a final concentration of 1x and 5x corresponding MICs, and incubated at 37 °C for 0, 10, 20, 30, 45, 60, 90, 120, and 180 mins. At each time point, aliquots (50 μL) were removed and diluted with fresh MH broth for 1000 times. […] of the dilutions were coated on MH agar plates, incubated overnight at 37 °C, and the viable colonies were counted. Ampicillin was used as positive control and sterile deionized water was used as negative control.

CC[C@H](C)[C@@H]1NC(=O)[C@H](CO)NC(=O)[C@H](CCCCN)NC(=O)[C@H]([C@@H](C)O)NC(=O)[C@H](Cc2c[nH]c3ccccc23)NC(=O)[C@@H](NC(=O)[C@H](Cc2ccccc2)NC(=O)[C@H](CCCCN)NC(=O)[C@H](CCCCN)NC(=O)[C@H](Cc2ccccc2)NC(=O)[C@H](C)NC(=O)[C@H](CCCNC(=N)N)NC(=O)[C@H](CCCNC(=N)N)NC(=O)[C@H](Cc2ccccc2)NC(=O)[C@H](CO)NC(=O)[C@H](CCCCN)NC(=O)[C@H](Cc2ccccc2)NC(=O)[C@H](Cc2ccccc2)NC(=O)[C@H](CCCNC(=N)N)NC(=O)[C@H](CCCCN)NC(=O)[C@H](Cc2ccccc2)NC(=O)[C@H](Cc2ccccc2)NC(=O)[C@@H](N)CCCCN)CSSC[C@@H](C(=O)O)NC(=O)[C@@H]2CCCN2C(=O)[C@H](CCCCN)NC(=O)[C@@H]2CCCN2C(=O)[C@@H]2CCCN2C1=O [H3TIF] (H-KFFKRFFKSFRRAFKKFCWTKSIPPKPC-OH; disulfide 18-28)
Ki (trypsin): 6.5 µM | MIC K. Pneumoniae 08040202 (K. Pneumoniae 08040202): — (no detectable activity in MIC assay in dose of 200 µg/mL or in trypsin inhibition assay at concentration of 160 μg/mL) | MIC Vibrio harveyi (Vibrio harveyi): 18.75 µg/mL (≈ 5.27 µM) | MIC Aeromonas veronii (Aeromonas veronii): 9.38 µg/mL (≈ 2.64 µM) | MIC Proteus mirabilis 1376 (Proteus mirabilis 1376): — (no detectable activity in MIC assay in dose of 200 µg/mL or in trypsin inhibition assay at concentration of 160 μg/mL) | MIC Candida albicans 08030102 [1]: 4.69 µg/mL (≈ 1.32 µM) | MIC E. Coli 08032823 (E. Coli 08032823): 37.5 µg/mL (≈ 10.5 µM) | MIC P. Aeruginosa 08021015 (P. Aeruginosa 08021015): — (no detectable activity in MIC assay in dose of 200 µg/mL or in trypsin inhibition assay at concentration of 160 μg/mL) | MIC Vibrio cholerae (Vibrio cholerae): 9.38 µg/mL (≈ 2.64 µM) | MIC Escherichia coli ATCC25922 [2]: 37.5 µg/mL (≈ 10.5 µM) | MIC Vibrio brasiiensis (Vibrio brasiiensis): 4.69 µg/mL (≈ 1.32 µM) | MIC Aeromonas sobria (Aeromonas sobria): 18.75 µg/mL (≈ 5.27 µM) | MIC Candida glabrata 08A802 (Candida glabrata 08A802): 9.38 µg/mL (≈ 2.64 µM) | MIC S. Aureus 08032706 (S. Aureus 08032706): — (no detectable activity in MIC assay in dose of 200 µg/mL or in trypsin inhibition assay at concentration of 160 μg/mL) | MIC Edwardsiella tarda (Edwardsiella tarda): — (no detectable activity in MIC assay in dose of 200 µg/mL or in trypsin inhibition assay at concentration of 160 μg/mL) | MIC Bacillus subtilis 08042313 [3]: 37.5 µg/mL (≈ 10.5 µM) | MIC S. Maltophilia 090223 (S. Maltophilia 090223): 4.69 µg/mL (≈ 1.32 µM) | MIC S. Aureus 08032615 (S. Aureus 08032615): — (no detectable activity in MIC assay in dose of 200 µg/mL or in trypsin inhibition assay at concentration of 160 μg/mL) | MIC Enterococcus faecium 08052315 [4]: 9.38 µg/mL (≈ 2.64 µM) | MIC S. Aureus 08032810 (S. Aureus 08032810): — (no detectable activity in MIC assay in dose of 200 µg/mL or in trypsin inhibition assay at concentration of 160 μg/mL) | MIC Nocardia asteroides 08052412 [5]: 4.69 µg/mL (≈ 1.32 µM) | MIC K. Pneumoniae 08031012 (K. Pneumoniae 08031012): — (no detectable activity in MIC assay in dose of 200 µg/mL or in trypsin inhibition assay at concentration of 160 μg/mL) | MIC E. Coli 08040726 (second line with this strain number) (E. coli 08040726 [6]): — (no detectable activity in MIC assay in dose of 200 µg/mL or in trypsin inhibition assay at concentration of 160 μg/mL) | MIC E. Coli 08032813 (E. Coli 08032813): — (no detectable activity in MIC assay in dose of 200 µg/mL or in trypsin inhibition assay at concentration of 160 μg/mL) | MIC Staphylococcus epidermidis [7]: — (no detectable activity in MIC assay in dose of 200 µg/mL or in trypsin inhibition assay at concentration of 160 μg/mL) | MIC Vibrio Parahaemolyticus (Vibrio Parahaemolyticus): 2.37 µg/mL (≈ 0.667 µM) | damage of established C. albicans biofilm ([8]; 5 μg/mL, biofilm preformed 72 h, XTT metabolic activity, Fig. 2B): evident antifungal activity | killing of C. albicans in preformed biofilm ([8]; 50 μg/mL, PI/SYBR Green I staining, fluorescence microscopy, Fig. 2C): destroy all of the cell membranes | time of killing toward E. coli (E. coli 08040726 [9]; 1xMIC): ≤ 2 h | time of killing toward E. coli (E. coli 08040726 [9]; 5xMIC): ≤ 0.5 h
